Experimental data: the supplement of paper PMC11451515

Experiments:
Settings in all cases: 48 h
[1] = tested on: NOMO1; assay: cell viability relative to DMSO control; higher = less cytotoxic
Method in brief: (§1)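 Viability was expressed as a per-plate percentage of DMSO wells, with cell-free wells as background. Leukemia cells (NOMO1 or SEM at 500 cells/well, P12-Ichikawa at 1000 cells/well) were adapted for at least four passages in each medium and seeded in 1536-well plates (5 μl). Library compounds in DMSO were pin-dosed over an 11-point threefold series from 47 μM to 0.79 nM, and CellTiter-Glo One luminescence was read after 48 h at 37°C.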

[2] = tested on: P12-Ichikawa; assay: as above
Method in brief: as §1

[3] = tested on: SEM cells; assay: as above
Method in brief: as §1

[4] = tested on: NOMO1; assay: AUC of viability dose-response curve (% viability x log10 dose units); higher = less sensitive
Method in brief: (§2)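 Seeding of medium-adapted leukemia cells was at 500 or 1000 cells/well in 1536-well plates, followed by 48 h at 37°C with library compounds in DMSO at 11 threefold doses from 47 μM to 0.79 nM. CellTiter-Glo One luminescence was normalised per plate to DMSO and cell-free wells and fitted as a four-parameter log-logistic function of log10 dose. Area under the curve was integrated by trapezoidal rule, with curves exceeding full viability scaled and curves failing quality control removed.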

[5] = tested on: P12-Ichikawa; assay: as above
Method in brief: as §2

[6] = tested on: SEM cells; assay: as above
Method in brief: as §2

[7] = HPLM + 10% dialyzed FBS, 0.000781 µM
[8] = HPLM + 10% dialyzed FBS, 0.00234 µM
[9] = HPLM + 10% dialyzed FBS, 0.00702 µM
[10] = HPLM + 10% dialyzed FBS, 0.0211 µM
[11] = HPLM + 10% dialyzed FBS, 0.0632 µM
[12] = HPLM + 10% dialyzed FBS, 0.19 µM
[13] = HPLM + 10% dialyzed FBS, 0.569 µM
[14] = HPLM + 10% dialyzed FBS, 1.71 µM
[15] = HPLM + 10% dialyzed FBS, 5.12 µM
[16] = HPLM + 10% dialyzed FBS, 15.4 µM
[17] = HPLM + 10% dialyzed FBS, 46.1 µM
[18] = RPMI 5 mM glucose + 10% FBS, 0.000781 µM
[19] = RPMI 5 mM glucose + 10% FBS, 0.00234 µM
[20] = RPMI 5 mM glucose + 10% FBS, 0.00702 µM
[21] = RPMI 5 mM glucose + 10% FBS, 0.0211 µM
[22] = RPMI 5 mM glucose + 10% FBS, 0.0632 µM
[23] = RPMI 5 mM glucose + 10% FBS, 0.19 µM
[24] = RPMI 5 mM glucose + 10% FBS, 0.569 µM
[25] = RPMI 5 mM glucose + 10% FBS, 1.71 µM
[26] = RPMI 5 mM glucose + 10% FBS, 5.12 µM
[27] = RPMI 5 mM glucose + 10% FBS, 15.4 µM
[28] = RPMI 5 mM glucose + 10% FBS, 46.1 µM
[29] = RPMI 5 mM glucose + 10% dialyzed FBS, 0.000781 µM
[30] = RPMI 5 mM glucose + 10% dialyzed FBS, 0.00234 µM
[31] = RPMI 5 mM glucose + 10% dialyzed FBS, 0.00702 µM
[32] = RPMI 5 mM glucose + 10% dialyzed FBS, 0.0211 µM
[33] = RPMI 5 mM glucose + 10% dialyzed FBS, 0.0632 µM
[34] = RPMI 5 mM glucose + 10% dialyzed FBS, 0.19 µM
[35] = RPMI 5 mM glucose + 10% dialyzed FBS, 0.569 µM
[36] = RPMI 5 mM glucose + 10% dialyzed FBS, 1.71 µM
[37] = RPMI 5 mM glucose + 10% dialyzed FBS, 5.12 µM
[38] = RPMI 5 mM glucose + 10% dialyzed FBS, 15.4 µM
[39] = RPMI 5 mM glucose + 10% dialyzed FBS, 46.1 µM
[40] = RPMI 5 mM glucose + 10% dialyzed FBS

## CC(C)(C)Cn1c(N)nc2ccc(-c3[nH]c(C(C)(C)C)nc3-c3ccc(F)cc3)nc21
[1]; [7]
  cell viability: 84.9%
[1]; [8]
  cell viability: 84.6%
[1]; [9]
  cell viability: 79.9%
[1]; [10]
  cell viability: 78.4%
[1]; [11]
  cell viability: 90.8%
[1]; [12]
  cell viability: 81%
[1]; [13]
  cell viability: 83.6%
[1]; [14]
  cell viability: 64.3%
[1]; [15]
  cell viability: 75.3%
[1]; [16]
  cell viability: 64.7%
[1]; [17]
  cell viability: 49.6%
[1]; [18]
  cell viability: 84.3%
[1]; [19]
  cell viability: 88.4%
[1]; [20]
  cell viability: 76.3%
[1]; [21]
  cell viability: 75.9%
[1]; [22]
  cell viability: 90.8%
[1]; [23]
  cell viability: 79.9%
[1]; [24]
  cell viability: 82.9%
[1]; [25]
  cell viability: 87.2%
[1]; [26]
  cell viability: 79.5%
[1]; [27]
  cell viability: 83.2%
[1]; [28]
  cell viability: 76.4%
[1]; [29]
  cell viability: 85.3%
[1]; [30]
  cell viability: 92.7%
[1]; [31]
  cell viability: 93.5%
[1]; [32]
  cell viability: 92.2%
[1]; [33]
  cell viability: 87.7%
[1]; [34]
  cell viability: 90.3%
[1]; [35]
  cell viability: 73.1%
[1]; [36]
  cell viability: 73.3%
[1]; [37]
  cell viability: 92%
[1]; [38]
  cell viability: 81.2%
[1]; [39]
  cell viability: 71.4%
[2]; [7]
  cell viability: 92.1%
[2]; [8]
  cell viability: 96.3%
[2]; [9]
  cell viability: 92.3%
[2]; [10]
  cell viability: 96%
[2]; [11]
  cell viability: 87.2%
[2]; [12]
  cell viability: 78.7%
[2]; [13]
  cell viability: 90.1%
[2]; [14]
  cell viability: 78.9%
[2]; [15]
  cell viability: 91.5%
[2]; [16]
  cell viability: 85.3%
[2]; [17]
  cell viability: 85.4%
[2]; [18]
  cell viability: 95.4%
[2]; [19]
  cell viability: 83.8%
[2]; [20]
  cell viability: 78.3%
[2]; [21]
  cell viability: 90.6%
[2]; [22]
  cell viability: 86.4%
[2]; [23]
  cell viability: 94.1%
[2]; [24]
  cell viability: 83%
[2]; [25]
  cell viability: 81.2%
[2]; [26]
  cell viability: 77.9%
[2]; [27]
  cell viability: 95.5%
[2]; [28]
  cell viability: 89.1%
[2]; [29]
  cell viability: 85.8%
[2]; [30]
  cell viability: 83.4%
[2]; [31]
  cell viability: 85.4%
[2]; [32]
  cell viability: 84.5%
[2]; [33]
  cell viability: 86.1%
[2]; [34]
  cell viability: 89.1%
[2]; [35]
  cell viability: 83.6%
[2]; [36]
  cell viability: 84.1%
[2]; [37]
  cell viability: 77.9%
[2]; [38]
  cell viability: 83%
[2]; [39]
  cell viability: 81%
[3]; [7]
  cell viability: 97.1%
[3]; [8]
  cell viability: 94.9%
[3]; [9]
  cell viability: 84.7%
[3]; [10]
  cell viability: 87.8%
[3]; [11]
  cell viability: 91.5%
[3]; [12]
  cell viability: 82.2%
[3]; [13]
  cell viability: 85.2%
[3]; [14]
  cell viability: 79.1%
[3]; [15]
  cell viability: 84.5%
[3]; [16]
  cell viability: 77.6%
[3]; [17]
  cell viability: 73.5%
[3]; [18]
  cell viability: 123%
[3]; [19]
  cell viability: 111%
[3]; [20]
  cell viability: 108%
[3]; [21]
  cell viability: 157%
[3]; [22]
  cell viability: 146%
[3]; [23]
  cell viability: 78.1%
[3]; [24]
  cell viability: 54.1%
[3]; [25]
  cell viability: 88.5%
[3]; [26]
  cell viability: 91.9%
[3]; [27]
  cell viability: 15.4%
[3]; [28]
  cell viability: 59.3%
[3]; [29]
  cell viability: 102%
[3]; [30]
  cell viability: 98.5%
[3]; [31]
  cell viability: 79.3%
[3]; [32]
  cell viability: 90.9%
[3]; [33]
  cell viability: 106%
[3]; [34]
  cell viability: 87.9%
[3]; [35]
  cell viability: 90%
[3]; [36]
  cell viability: 87%
[3]; [37]
  cell viability: 85.3%
[3]; [38]
  cell viability: 13.4%
[3]; [39]
  cell viability: 98.2%
[4]; HPLM + 10% dialyzed FBS
  AUC of viability dose-response curve: 367
[4]; RPMI 5 mM glucose + 10% FBS
  AUC of viability dose-response curve: 392
[4]; [40]
  AUC of viability dose-response curve: 405
[5]; HPLM + 10% dialyzed FBS
  AUC of viability dose-response curve: 422
[5]; RPMI 5 mM glucose + 10% FBS
  AUC of viability dose-response curve: 414
[5]; [40]
  AUC of viability dose-response curve: 401
[6]; HPLM + 10% dialyzed FBS
  AUC of viability dose-response curve: 407
[6]; RPMI 5 mM glucose + 10% FBS
  AUC of viability dose-response curve: 347
[6]; [40]
  AUC of viability dose-response curve: 412

## CCc1ccc(C(=O)Nc2cc(CN3CCN(C)CC3)cc(C(F)(F)F)c2)cc1C#Cc1cnc2ccnn2c1
[1]; [7]
  cell viability: 117%
[1]; [8]
  cell viability: 113%
[1]; [9]
  cell viability: 123%
[1]; [10]
  cell viability: 118%
[1]; [11]
  cell viability: 109%
[1]; [12]
  cell viability: 129%
[1]; [13]
  cell viability: 134%
[1]; [14]
  cell viability: 142%
[1]; [15]
  cell viability: 104%
[1]; [16]
  cell viability: 103%
[1]; [17]
  cell viability: 101%
[1]; [18]
  cell viability: 99.5%
[1]; [19]
  cell viability: 112%
[1]; [20]
  cell viability: 113%
[1]; [21]
  cell viability: 114%
[1]; [22]
  cell viability: 120%
[1]; [23]
  cell viability: 110%
[1]; [24]
  cell viability: 119%
[1]; [25]
  cell viability: 116%
[1]; [26]
  cell viability: 119%
[1]; [27]
  cell viability: 128%
[1]; [28]
  cell viability: 102%
[1]; [29]
  cell viability: 115%
[1]; [30]
  cell viability: 119%
[1]; [31]
  cell viability: 107%
[1]; [32]
  cell viability: 112%
[1]; [33]
  cell viability: 120%
[1]; [34]
  cell viability: 114%
[1]; [35]
  cell viability: 125%
[1]; [36]
  cell viability: 119%
[1]; [37]
  cell viability: 120%
[1]; [38]
  cell viability: 107%
[1]; [39]
  cell viability: 113%
[2]; [7]
  cell viability: 126%
[2]; [8]
  cell viability: 118%
[2]; [9]
  cell viability: 114%
[2]; [10]
  cell viability: 121%
[2]; [11]
  cell viability: 120%
[2]; [12]
  cell viability: 124%
[2]; [13]
  cell viability: 118%
[2]; [14]
  cell viability: 117%
[2]; [15]
  cell viability: 112%
[2]; [16]
  cell viability: 102%
[2]; [17]
  cell viability: 88.2%
[2]; [18]
  cell viability: 119%
[2]; [19]
  cell viability: 122%
[2]; [20]
  cell viability: 134%
[2]; [21]
  cell viability: 113%
[2]; [22]
  cell viability: 124%
[2]; [23]
  cell viability: 116%
[2]; [24]
  cell viability: 113%
[2]; [25]
  cell viability: 123%
[2]; [26]
  cell viability: 106%
[2]; [27]
  cell viability: 102%
[2]; [28]
  cell viability: 87.3%
[2]; [29]
  cell viability: 130%
[2]; [30]
  cell viability: 118%
[2]; [31]
  cell viability: 121%
[2]; [32]
  cell viability: 113%
[2]; [33]
  cell viability: 111%
[2]; [34]
  cell viability: 119%
[2]; [35]
  cell viability: 107%
[2]; [36]
  cell viability: 108%
[2]; [37]
  cell viability: 104%
[2]; [38]
  cell viability: 99.1%
[2]; [39]
  cell viability: 83.8%
[3]; [7]
  cell viability: 121%
[3]; [8]
  cell viability: 113%
[3]; [9]
  cell viability: 122%
[3]; [10]
  cell viability: 126%
[3]; [11]
  cell viability: 116%
[3]; [12]
  cell viability: 128%
[3]; [13]
  cell viability: 77.4%
[3]; [14]
  cell viability: 122%
[3]; [15]
  cell viability: 109%
[3]; [16]
  cell viability: 73.7%
[3]; [17]
  cell viability: 74.4%
[3]; [18]
  cell viability: 110%
[3]; [19]
  cell viability: 118%
[3]; [20]
  cell viability: 114%
[3]; [21]
  cell viability: 109%
[3]; [22]
  cell viability: 111%
[3]; [23]
  cell viability: 106%
[3]; [24]
  cell viability: 98.3%
[3]; [25]
  cell viability: 116%
[3]; [26]
  cell viability: 95.9%
[3]; [27]
  cell viability: 94.1%
[3]; [28]
  cell viability: 71.9%
[4]; HPLM + 10% dialyzed FBS
  AUC of viability dose-response curve: 459
[4]; RPMI 5 mM glucose + 10% FBS
  AUC of viability dose-response curve: 460
[4]; [40]
  AUC of viability dose-response curve: 477
[5]; HPLM + 10% dialyzed FBS
  AUC of viability dose-response curve: 459
[5]; RPMI 5 mM glucose + 10% FBS
  AUC of viability dose-response curve: 454
[5]; [40]
  AUC of viability dose-response curve: 415
[6]; HPLM + 10% dialyzed FBS
  AUC of viability dose-response curve: 449
[6]; RPMI 5 mM glucose + 10% FBS
  AUC of viability dose-response curve: 453
[6]; [40]
  AUC of viability dose-response curve: 451
